Measured values reported in patent publication US20230136297A1, “Methods Of Treating Fabry Disease In Patients Having A Mutation In The GLA Gene” (Amicus Therapeutics, Inc., priority 2020, published 2023).
Changes are numbered by the printed parent chain.

Columns and labels:
Assay in all cases: α-Gal A activity in lysates of transfected HEK-293 cells ± migalastat (HEK assay)
Assay type in all cases: cell-based
[1] = target: T1, α-Gal A mutant form V124G (Homo sapiens, UniProt P06280, V124G)
T1 construct: expressed in transfected cells; host or cells: HEK-293
T1 sequence (P06280 32-429 V124G): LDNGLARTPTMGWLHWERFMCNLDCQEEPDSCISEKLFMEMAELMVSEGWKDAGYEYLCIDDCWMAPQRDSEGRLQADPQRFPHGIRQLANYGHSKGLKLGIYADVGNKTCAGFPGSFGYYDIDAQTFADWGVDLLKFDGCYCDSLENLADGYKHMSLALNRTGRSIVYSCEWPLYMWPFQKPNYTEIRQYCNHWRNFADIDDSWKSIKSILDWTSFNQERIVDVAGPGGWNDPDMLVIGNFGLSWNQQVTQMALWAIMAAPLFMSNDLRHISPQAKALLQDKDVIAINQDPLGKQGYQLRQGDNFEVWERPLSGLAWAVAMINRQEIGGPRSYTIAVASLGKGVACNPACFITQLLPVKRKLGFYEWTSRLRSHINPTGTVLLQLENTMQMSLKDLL
Procedure, shortened: (§1)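 Activity is reported as nmol of free 4-MU released per mg protein per hour (nmol/mg/hr).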

[2] = target: T2, α-Gal A mutant form L310V (Homo sapiens, UniProt P06280, L310V)
T2 construct: expressed in transfected cells; host or cells: HEK-293
T2 sequence (P06280 32-429 L310V): T1 sequence (P06280 32-429 V124G) with G93V, L279V
Procedure, shortened: as §1

[3] = target: T3, α-Gal A mutant form A291S (Homo sapiens, UniProt P06280, A291S)
T3 construct: expressed in transfected cells; host or cells: HEK-293
T3 sequence (P06280 32-429 A291S): T1 sequence (P06280 32-429 V124G) with G93V, A260S
Procedure, shortened: as §1

[4] = target: T4, α-Gal A mutant form I303T (Homo sapiens, UniProt P06280, I303T)
T4 construct: expressed in transfected cells; host or cells: HEK-293
T4 sequence (P06280 32-429 I303T): T1 sequence (P06280 32-429 V124G) with G93V, I272T
Procedure, shortened: as §1

[5] = target: T5, α-Gal A mutant form G271A (Homo sapiens, UniProt P06280, G271A)
T5 construct: expressed in transfected cells; host or cells: HEK-293
T5 sequence (P06280 32-429 G271A): T1 sequence (P06280 32-429 V124G) with G93V, G240A
Procedure, shortened: as §1

[6] = 10 μM migalastat minus baseline
[7] = HEK-293 lysates, 10 μM migalastat 5 days, mean ± SEM

For `OC[C@H]1NC[C@H](O)[C@@H](O)[C@H]1O` [migalastat, (2R,3S,4R,5S)-2-(hydroxymethyl) piperdine-3,4,5-triol], the “Absolute increase (% WT)” value [1, 6] was 6.4 % WT, the “10 μM migalastat α-Gal A activity” value [1, 7] was 4316 ± 432 nmol/mg/h and the “10 μM migalastat α-Gal A activity (% WT)” value [1, 7] was 10.7 ± 1^ % WT. For the same molecule, the “Absolute increase (% WT)” value [2, 6] was 22.8 % WT, the Relative increase ([2]; 10 μM migalastat ÷ baseline) was 1.37 and the “10 μM migalastat α-Gal A activity” value [2, 7] was 31936 ± 2527 nmol/mg/h. For the same molecule, the “10 μM migalastat α-Gal A activity (% WT)” value [2, 7] was 78.4 ± 4.8 % WT, the “Absolute increase (% WT)” value [3, 6] was 26.8 % WT and the Relative increase ([3]; 10 μM migalastat ÷ baseline) was 1.55. For the same molecule, the “10 μM migalastat α-Gal A activity” value [3, 7] was 20029 ± 1654 nmol/mg/h, the “10 μM migalastat α-Gal A activity (% WT)” value [3, 7] was 74.5 ± 4^ % WT and the “Absolute increase (% WT)” value ([4]; 10 μM migalastat minus baseline, baseline BLD) was 7.3 % WT. The “10 μM migalastat α-Gal A activity (% WT)” value ([4]; HEK-293 lysates, 10 μM migalastat 5 days, mean ± SEM, baseline BLD) was 7.3 ± 1.4 % WT, the “10 μM migalastat α-Gal A activity” value ([4]; HEK-293 lysates, 10 μM migalastat 5 days, mean ± SEM, baseline BLD (<142 nmol/mg/hr)) was 2809 ± 520 nmol/mg/h and the “Absolute increase (% WT)” value [5, 6] was 34.4 % WT. For the same molecule, the Relative increase ([5]; 10 μM migalastat ÷ baseline) was 3.87, the “10 μM migalastat α-Gal A activity” value [5, 7] was 18928 ± 1069 nmol/mg/h and the “10 μM migalastat α-Gal A activity (% WT)” value [5, 7] was 46.4 ± 1.8 % WT.
